Results reported in patent US20240165250A1, “Bifunctional Folate Receptor Binding Compounds” (Lycia Therapeutics, Inc., priority 2021, published 2024).
Where two headings read alike, the source gives them in different places. Values belong to the compound of their own block, whether it stands above or below them.

Experiments:
[1] = molecular target: T1, TNFα trimer (Homo sapiens, UniProt P01375); experiment: SPR binding kinetics of compounds to TNFα trimer (single-cycle kinetics); settings: for kon: read-out: ka
T1 construct: Ligand MW (Da) 53729.8; fused on or other part: Three copies of soluble TNF-alpha joined by linkers into one polypeptide; The protein is biotinylated and captured on immobilised streptavidin
T1 sequence (P01375 88-233 limits assumed): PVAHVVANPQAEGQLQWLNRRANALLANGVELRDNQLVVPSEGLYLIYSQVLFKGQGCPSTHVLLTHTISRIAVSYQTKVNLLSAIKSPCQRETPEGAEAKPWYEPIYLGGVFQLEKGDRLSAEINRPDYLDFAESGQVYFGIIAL
Description: Streptavidin 100 μg/mL Streptavidin (Invitrogen Cat #:434302) diluted in 10 mM sodium acetate, pH 4.5) was immobilized to both the reference and active surfaces as described in Example 51. The surfaces were conditioned with three injections of running Buffer (10 mM HEPES, 150 mM NaCl, 0.05% T20, pH 7.5, 2% DMSO) at a flow rate of 10 μL/min, Contact time: 60 s. Flow rate: 10 μL/min. The active surface was treated with biotinylated linked TNFα timer 20 μg/mL diluted in running buffer at a flow rate of 5 μL/min contact time: 600 s, yielding a final response of ˜3000 RU. Example compounds were then serially diluted 1:1 in running buffer (10 mM HEPES, 150 mM NaCl, 0.05% T20, pH 7.5, 2% DMSO) from 30 uM to 937.5 nM and flowed over the active and reference surfaces from lowest concentration to greatest concentration in the single-cycle kinetics format, and then allowed to dissociate in running buffer for 7200 s, at 30 μL/min. Sensorgrams were solvent corrected, double-referenced, and the data fitted and analyzed in Biacore Insight Evaluation Software Version 3.0.11.15423.

[2] = molecular target: T2, FOLR2 (Homo sapiens, UniProt P14207); experiment: SPR binding kinetics of compounds to folate receptor (FOLR2); settings: immobilized FOLR2, compound 3.125-100 nM
T2 construct: purchased Acro Biosystems FO2-H5223-100 μg
T2 sequence (P14207 17-230): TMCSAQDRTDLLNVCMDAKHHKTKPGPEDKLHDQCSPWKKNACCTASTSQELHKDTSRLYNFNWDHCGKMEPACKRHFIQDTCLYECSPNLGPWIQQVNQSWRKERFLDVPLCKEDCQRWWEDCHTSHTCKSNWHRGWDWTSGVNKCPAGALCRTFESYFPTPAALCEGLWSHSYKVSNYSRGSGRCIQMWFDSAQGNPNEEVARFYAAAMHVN
Description: A Biacore 8K+ was used to measure the association and dissociation rates of example compounds to FOLR2 (Acro Biosystems, Cat: FO2-H5223-100 μg). Briefly, FOLR2 was reconstituted according to the manufacture's instructions to 200 μg/mL. Both the active and reference surfaces of a Cytiva CM5 Series S Sensor Chip were activated with a 1:1 mixture of 400 mM EDC and 100 mM NHS for 420 s at 10 μL/min. 25 μg/mL FOLR2 diluted in Sodium Acetate pH 5.5 was injected on the active channel (Flow Cell 2) for 420 s at 10p/min. Both the reference and active surfaces were then capped with 1M ethanolamine, pH 8.5 for 420 s, achieving an immobilization level of ˜4200 RU. Example compounds were serially diluted 1:1 in running buffer (10 mM HEPES, 150 mM NaCl, 0.05% T20, pH 7.5, 2% DMSO) from 100 nM to 3.125 nM and flowed over the active and reference surfaces for 120 s, and then allowed to dissociate in running buffer for 600 s, at 30 uL/min. The FOLR2 immobilized active surface and the reference surface were regenerated with a 30 s pulse of Sodium Acetate pH 5.5 at 30 μL/min. Sensorgrams were solvent corrected, double-referenced, and the data fitted and analyzed in Biacore Insight Evaluation Software Version 3.0.11.15423.
FIG. 1 illustrates the SPR sensorgrams for various concentrations of compound I-21 (3.125 nM to 100 nM) to folate receptor 2 (FOLR2), illustrating 1:1 binding.

[3] = molecular target: T3, TNFα (Homo sapiens, UniProt P01375+P14207); experiment: Compound mediated uptake of TNFα-pHrodo in THP-1 cells (flow cytometry); type: cell-based; settings: 125 nM-20 μM, 24 hrs, FIG. 4
T3 construct: made in house
T3 sequence (P01375 77-233 limits assumed, species assumed): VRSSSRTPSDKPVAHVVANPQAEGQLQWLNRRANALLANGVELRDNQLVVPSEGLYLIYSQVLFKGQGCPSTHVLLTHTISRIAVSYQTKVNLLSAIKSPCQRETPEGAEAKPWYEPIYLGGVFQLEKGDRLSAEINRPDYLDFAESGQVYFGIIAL
T3 sequence (P14207 17-230 limits assumed, species assumed): as the sequence (P14207 17-230) above
Description: THP-1 cells, a monocytic leukemia cell line that endogenously express folate receptor beta, were used as a model system to measure example compound stimulated uptake of in-house produced TNFα conjugated to the pH sensitive fluorescent dye pHrodo green (ThermoFisher Scientific #P35369).
THP-1 cells were maintained in RPMI (Gibco #61870143) with 10% v/v FBS (VWR #89510-188) with 2 mM L-alanyl-L-glutamine dipeptide, 100 units/ml penicillin and 100 ug/ml streptomycin (Gibco #15140148). Cells were pelleted, resuspended in folate-free RPMI (Gibco #27016021) and seeded at 50,000 cells per well of a 96 well plate. Example compound was added to each well as a log 2 dilution series ranging from 20 μM to 125 nM final concentration. Cells were incubated for 24 hrs and washed/resuspended in phosphate buffered saline (pH 7.4) with 1% w/v BSA. Uptake was measured using a Novocyte Advanteon Flow Cytometer (Agilent Technologies) with the […] and FITC detection configuration.

[4] = molecular target: T3, TNFα; experiment: Compound mediated degradation of TNFα in THP-1 cells (pulse-chase, TNFα-biotin blot); type: cell-based; settings: PMA differentiated THP-1 cells, compound 10 μM, FIG. 5
Description: To measure degradation of internalized TNFα, a pulse-chase experiment was performed whereby cells were treated with +/− example compounds and/or +/− protease inhibitors and incubated for 1 hr in media containing TNFα-biotin to allow uptake and then washed and incubated 90 minutes in fresh media without TNFα to allow degradation. Samples were collected after the pulse phase (60 min) and chase phase (90 min) to measure uptake and degradation, respectively.
THP-1 cells were seeded at 100,000 cells per well of 12 well plate with 1 mL RPMI+10% w/w FBS+1× penicillin/streptomycin and differentiated using 20 ng/mL phorbol myristate acetate (Sigma-Aldrich #P8139) for 72 hrs. After 72 hrs media was replaced with 1 ml RPMI+10% v/v FBS+1× penicillin/streptomycin and TNFα-biotin (AcroBiosystems #50-201-9879) was added to 12.5 nM final concentration. Where noted example compound was added at 10 μM final concentration and protease inhibitors were added at 100 ug/ml final concentration for leupeptin (Sigma-Aldrich #L2884) or 1 μg/ml final concentration for pepstatin A (Sigma-Aldrich #BP26715). […] Relative quantification of bands was performed using the ImageLab software (BioRad) with endogenously biotinylated proteins serving as endogenous controls. […]

[5] = molecular target: T3, TNFα; experiment: Compound mediated depletion of HiBiT-TNFα from the medium of THP-1 cells; type: cell-based; settings: compound 10 μM, FIG. 6
Source text: An in-house recombinantly expressed and purified N-terminal fusion of HiBiT with TNFα was used to measure example compound-stimulated depletion from the media. HiBiT and largeBiT are split nanoluciferase polypeptides that result in complementation of luciferase activity in the presence of both polypeptides. The level of HiBit-TNFα in the media over time can be measure by sampling the media and mixing with the Nano-Glo HiBiT Extracellular Detection Reagent (Promega Corporation) containing the largeBiT polypeptide and nanoluciferase substrate.
THP-1 cells were seeded at 100,000 cells per well of 12 well plate with 1 mL RPMI+10% w/w FBS+1× penicillin/streptomycin and differentiated using 20 ng/mL phorbol myristate acetate (Sigma-Aldrich #P8139) for 72 hrs. After 72 hrs the growth medium was replaced with 1 ml RPMI+10% v/v FBS+1× penicillin/streptomycin containing 12.5 nM HiBit-TNFα. Where noted example compound was added at 10 μM final concentration. The medium was sampled (50 μl) at 0, 24, 48 and 96 hr and luciferase activity was measured using the Nano-Glo HiBiT Extracellular Detection Reagent.

[6] = SPR single cycle kinetics, immobilized TNFα trimer
[7] = SPR single cycle kinetics, immobilized TNFα trimer, compound 937.5 nM-30 uM

Kd [1, 6]: 4.18 nM | kon [1, 7]: 874 M⁻¹ s⁻¹
SMILES: Nc1nc(O)c2nc(CNc3ccc(C(=O)N[C@@H](CCC(=O)NCCOCCOCCOCCOCc4cn(CCCCCOc5ccc(-c6ccc7nc(COc8cccc(N9CCCC9=O)c8)n(Cc8ccccc8OC(F)F)c7c6)cn5)nn4)C(=O)O)cc3)cnc2n1 [Compound I-25, (S)-18-(4-(((2-amino-4-hydroxypteridin-6-yl)methyl)amino)benzamido)-1-(1-(5-((5-(1-(2-(difluoromethoxy)benzyl)-2-((3-(2-oxopyrrolidin-1-yl)phenoxy)methyl)-1H-benzo[d]imidazol-6-yl)pyridin-2-yl)oxy)pentyl)-1H-1,2,3-triazol-4-yl)-15-oxo-2,5,8,11-tetraoxa-14-azanonadecan-19-oic acid]

Kd [2]: 0.833 nM | kon ([2]; read-out: ka): 5.57e+06 M⁻¹ s⁻¹ | Kd [1, 6]: 80.5 nM | kon [1, 7]: 963 M⁻¹ s⁻¹
SMILES: Cc1nc2cc(F)c(-c3cnc(OCCCCCn4cc(COCCOCCOCCOCCNC(=O)[C@H](CCC(=O)O)NC(=O)c5ccc(NCc6cnc7nc(N)nc(O)c7n6)cc5)nn4)nc3)nc2c(N[C@H](C)c2cc(C#N)ccc2F)c1Cl [Compound I-21, (S)-16-(4-(((2-amino-4-hydroxypteridin-6-yl)methyl)amino)benzamido)-1-(1-(5-((5-(7-chloro-8-(((R)-1-(5-cyano-2-fluorophenyl)ethyl)amino)-3-fluoro-6-methyl-1,5-naphthyridin-2-yl)pyrimidin-2-yl)oxy)pentyl)-1H-1,2,3-triazol-4-yl)-15-oxo-2,5,8,11-tetraoxa-14-azanonadecan-19-oic acid]

SMILES: Cc1nc2cc(F)c(-c3cnc(OCCCCCn4cc(COCCOCCNC(=O)CC[C@H](NC(=O)c5ccc(NCc6cnc7nc(N)nc(O)c7n6)cc5)C(=O)O)nn4)nc3)nc2c(N[C@H](C)c2cc(C#N)ccc2F)c1Cl [Compound I-16, N2-(4-(((2-amino-4-hydroxypteridin-6-yl)methyl)amino)benzoyl)-N5-(2-(2-((1-(5-((5-(7-chloro-8-(((R)-1-(5-cyano-2-fluorophenyl)ethyl)amino)-3-fluoro-6-methyl-1,5-naphthyridin-2-yl)pyrimidin-2-yl)oxy)pentyl)-1H-1,2,3-triazol-4-yl)methoxy)ethoxy)ethyl)-L-glutamine]
binding mode from SPR sensorgrams ([1]; FIGS. 2A-2C): 1:1 binding | Kd [1, 6]: 50.2 nM | Rmax [1, 6]: 43.7 RU | kd [1, 6]: 5.81e-05 s⁻¹ | Stoichiometry ([1]; SPR, Rmax versus expected Rmax): 0.7 | kon [1]: 1160 M⁻¹ s⁻¹

degradation and rescue of TNFα [4]: mediated degradation and rescue of TNFα
SMILES: Cc1nc2cc(F)c(-c3cnc(OCCCCCn4cc(COCCOCCOCCOCCNC(=O)CC[C@H](NC(=O)c5ccc(NCc6cnc7nc(N)nc(O)c7n6)cc5)C(=O)O)nn4)nc3)nc2c(N[C@H](C)c2cc(C#N)ccc2F)c1Cl [Compound I-17, (S)-18-(4-(((2-amino-4-hydroxypteridin-6-yl)methyl)amino)benzamido)-1-(1-(5-((5-(7-chloro-8-(((R)-1-(5-cyano-2-fluorophenyl)ethyl)amino)-3-fluoro-6-methyl-1,5-naphthyridin-2-yl)pyrimidin-2-yl)oxy)pentyl)-1H-1,2,3-triazol-4-yl)-15-oxo-2,5,8,11-tetraoxa-14-azanonadecan-19-oic acid]
uptake of labelled TNFα (median fluorescence intensity of pHrodo dye) [3]: stimulated uptake of labelled TNFα in THP-1 cells in a dose-dependent manner | rate of depletion of HiBiT-TNFα from medium ([5]; first 24 hours): more rapid depletion of HiBiT-TNFα over the first 24 hours | total depletion of HiBiT-TNFα from the culture medium ([5]; sampled to 96 hr): greater total depletion of HiBiT-TNFα from the culture medium
